Measured values as given in a melting point compilation (Tetko et al.).

Settings: a range is the spread between reports

Compound	melting point [°C]
C1=CC2CCC1C2	45 to 46
O=C(O)CC[N+](=O)[O-]	62 to 64
O=C(O)CCCc1ccc(N(CCCl)CCCl)cc1	64 to 65
C=CCC1CCCC1	-111
O=C1CNC(=O)N1	220 to 222
CCCOC=O	-93 to -92.9
CCCCCCCCCCCCCCC	9.9 to 10
CCCCCCCCCCC1CCCCC1	-2 to -1.7
CCCOC1CCC2(C)C(CC(=O)C3C2CCC2(C)C(OCCC)CCC32)C1 (stereo unspecified)	161 to 163
CCCCCCCCCCCCN(C)C	-20 to -15
Clc1ccccc1C(Cl)(Cl)Cl	29 to 30
Cc1ccccc1CBr	19 to 21
CC(C)C(O)C(C)(C)C (stereo unspecified)	-13 to -11
O=S1(=O)CC=CC1	64.5 to 65
CCCC(N)=O	115 to 116
CC(=O)c1ccc(-c2ccccc2)cc1	120 to 122
Oc1cc(Cl)ccc1Oc1ccc(Cl)cc1Cl	55.6 to 57
Clc1ccc(C(c2ccccc2Cl)C(Cl)(Cl)Cl)cc1 (stereo unspecified)	74.2 to 75
CN(C)C(=O)Nc1cccc(C(F)(F)F)c1	164
CC(=O)Cl	-113 to -112
ClCCOCCOCCCl	-32 to -31.5
C1CCc2nnnn2CC1	57.5 to 60
COc1cc(-c2ccc(N)c(OC)c2)ccc1N	136 to 137

Compound	melting point [°C]
OC1CCCC1	-20 to -16.2
CCCCCCCCCc1ccc(O)cc1	42 to 45
COP(=O)(OC)OC(=CCl)c1cc(Cl)c(Cl)cc1Cl	96 to 97.5
CC(C)(C)C1CCCCC1	-41.2 to -41
S=C1NCCS1	105 to 106
CCC1CCCCC1	-111
CC(C)=C(C)C(C)C	-113
CC(C(C)(C)C)C(C)(C)C	-39 to -38.7
Nc1ccc([N+](=O)[O-])cc1N	199 to 201
C#CCCCC	-132
C=CCC(C)CC (stereo unspecified)	-142 to -141
C1CO1	-112 to -111
CCC1=CCCC1	-118
Oc1cc(Cl)cc(Cl)c1	66 to 68
O=C1CSC(=O)N1	125 to 128
CC1(C)C(=O)N(Cl)C(=O)N1Cl	132 to 135
IC(I)I	119 to 122
CCCCCCCCCC(=O)Cl	-35 to -34.5
O=[N+]([O-])c1ccccc1CCl	47 to 51
CCCCP(CCCC)CCCC	-65 to -60
Oc1ccccc1-c1ccccc1	56 to 60
O=C(O)CBr	47 to 50

Now from value to compound:

melting point [°C]	Compound
25 to 27	CCCC#CC(=O)O
128 to 130	O=C(O)c1cccs1
268 to 270	Cc1ccc2c(c1[N+](=O)[O-])C(=O)c1ccccc1C2=O
124	CCOC(=O)c1cc2ccccc2[nH]1
95	Cc1c[nH]c2ccccc12
-72 to -71.5	Cc1ccccc1C(C)C
140 to 141	COc1cc([N+](=O)[O-])ccc1N
31 to 32	COc1cccc(Cl)c1Cl
28 to 29	CCOc1ccc(I)cc1
134	O=C(O)CCc1c[nH]c2ccccc12
97 to 98	OCc1c(Cl)cccc1Cl
116 to 117	N#CCc1ccc([N+](=O)[O-])cc1
65 to 65.5	CC(=O)Nc1cccc(C)c1
79 to 80	Cc1cc(C)c(C)cc1C
136	CCC(C)(C)C(=O)OC1CC(C)C=C2C=CC(C)C(CCC3CC(O)CC(=O)O3)C21 (stereo unspecified)
196 to 201	Oc1c(Br)cc(Br)c2cccnc12
5 to 7.1	Brc1ccccc1Br
21 to 22	CCCc1ccc(O)cc1
32 to 33	COC(=O)c1cccc(Br)c1
159	c1ccc2c(c1)Sc1ccccc1S2
74 to 78.5	Nc1c(Cl)cc(Cl)cc1Cl
-15.2 to -15	OCc1ccccc1
126 to 127	O=[N+]([O-])c1ccc(Br)cc1
-12.5 to -12	FC(F)(F)c1ccc(Cl)c(Cl)c1
-84.3 to -84	CCc1cc(C)cc(C)c1
-68 to -67.9	CCc1ccccc1Br

melting point [°C]	Compound
30.5 to 32	O=[N+]([O-])c1cccc(CO)c1
235 to 239	Nc1ccc2cc3ccccc3cc2c1
31.5 to 34	O=Cc1ccc(CO)o1
116 to 118	NC(=O)c1ccccc1F
7 to 8	O=C1CCCc2ccccc21
54 to 57	Clc1ccc(I)cc1
66 to 66.5	CCOc1ccc(O)cc1
68 to 71	Cc1ccc(S(=O)(=O)Cl)cc1
65 to 66	CCOC=C(C#N)C#N
159 to 160	O=[N+]([O-])c1ccc(Nc2ccccc2)c([N+](=O)[O-])c1
81 to 83	COc1ccc(O)cc1OC
100 to 103	Nc1ccc(Cl)c([N+](=O)[O-])c1
173 to 175	Nc1cccc(C(=O)O)c1
15.5 to 18.5	O=C(O)C1CC1
43 to 44	O=Cc1ccc(Cl)c(Cl)c1
144 to 146	c1ccc(N=C(Nc2ccccc2)Nc2ccccc2)cc1
-40 to -39.8	Cc1cccc(Br)c1
8.5 to 9	CCOC(=O)c1cccnc1
143 to 144	O=C(O)c1c(Cl)cccc1Cl
-8 to -7.8	OCCc1ccccn1
118 to 119	O=C(O)Cc1cccc([N+](=O)[O-])c1
148 to 149	NC(=O)NCc1ccccc1
119 to 121	c1ccc(P(CP(c2ccccc2)c2ccccc2)c2ccccc2)cc1
93.5 to 98	N#Cc1ccccc1O
44.5 to 46	COc1cccc(C#N)c1OC
